Where two headings read alike, the source gives them in different places. *1 amine or outer side, *2 acyl side, *3 side chain or, on linkers, in order; H or OH if unused. Where a SMILES comes first, the peptide text is derived from it. Side-chain parts run from the residue outwards. [ ]: non-standard residue; d: D form. The star is where a group is joined. αMePhe(2-F) = C[C@](N)(Cc1ccccc1F)C(=O)O; γGlu = O=C(O)[C@H](CCC(=O)[*:2])N[*:1]; C14 diacid = O=C(O)CCCCCCCCCCCCC(=O)*; αMeY = C[C@](N)(Cc1ccc(O)cc1)C(=O)O; αMeL = CC(C)C[C@](C)(N)C(=O)O; Orn = NCCC[C@H](N)C(=O)O; AEEA = NCCOCCOCC(=O)O; Aib = CC(C)(N)C(=O)O
Key:
Format in all cases: cell-based
hGLP-1R = hGLP-1R (Homo sapiens, UniProt P43220); test: Functional cAMP formation (HTRF) in HEK-293 clonal cells expressing hGLP-1R, 0.1% bovine casein, without or with 1.0% human serum albumin; parameters: expressed in transfected cells; conditions: for Emax: 37° C., read-out: hGLP-1R Emax, % ± SEM
Sequence of hGLP-1R (P43220 24-463): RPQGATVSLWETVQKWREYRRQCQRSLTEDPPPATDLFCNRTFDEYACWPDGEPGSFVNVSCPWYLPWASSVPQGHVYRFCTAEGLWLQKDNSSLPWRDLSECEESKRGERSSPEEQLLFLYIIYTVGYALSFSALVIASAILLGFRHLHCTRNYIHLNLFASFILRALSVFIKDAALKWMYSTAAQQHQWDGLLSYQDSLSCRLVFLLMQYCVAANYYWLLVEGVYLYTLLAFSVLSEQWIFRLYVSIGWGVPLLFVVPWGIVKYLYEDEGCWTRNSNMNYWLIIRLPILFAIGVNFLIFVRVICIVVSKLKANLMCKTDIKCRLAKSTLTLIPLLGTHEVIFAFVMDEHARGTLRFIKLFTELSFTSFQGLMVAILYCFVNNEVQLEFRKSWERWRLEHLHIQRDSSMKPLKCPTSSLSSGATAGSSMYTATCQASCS
Summary of the method: (§1)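 Cells were stimulated with peptide for 30 min at 37° C, then lysed in buffer carrying cAMP-d2 and anti-cAMP Eu3+-cryptate for a competitive HTRF read after at least 60 min at room temperature. The 665/620 nm ratio was converted to nM cAMP against a standard curve.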

hGIPR = target: T1, hGIPR (Homo sapiens, UniProt P48546); test: Functional cAMP formation (HTRF) in HEK-293 clonal cells expressing hGIPR, 0.1% bovine casein, without or with 1.0% human serum albumin; conditions: for EC50: geometric mean, read-out: hGIPR EC50, nM (SEM, n); for Emax: read-out: hGIPR Emax, % ± SEM
T1 construct: expressed in transfected cells
T1 sequence (P48546 22-466): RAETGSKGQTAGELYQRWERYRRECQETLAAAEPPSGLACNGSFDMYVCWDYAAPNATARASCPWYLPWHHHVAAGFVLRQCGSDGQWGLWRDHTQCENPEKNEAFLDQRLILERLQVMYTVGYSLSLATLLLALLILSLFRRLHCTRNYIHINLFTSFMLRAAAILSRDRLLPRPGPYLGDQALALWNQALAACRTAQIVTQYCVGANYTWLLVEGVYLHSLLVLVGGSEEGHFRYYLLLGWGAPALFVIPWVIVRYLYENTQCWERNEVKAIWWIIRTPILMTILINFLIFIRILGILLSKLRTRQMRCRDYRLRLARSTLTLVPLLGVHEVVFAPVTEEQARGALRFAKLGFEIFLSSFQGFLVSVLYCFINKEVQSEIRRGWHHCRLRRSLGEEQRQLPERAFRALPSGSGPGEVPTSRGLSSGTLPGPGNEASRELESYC
Summary of the method: as §1

hGCGR = target: T2, hGCGR (Homo sapiens, UniProt P47871); test: Functional cAMP formation (HTRF) in HEK-293 clonal cells expressing hGCGR, 0.1% bovine casein, without or with 1.0% human serum albumin; conditions: geometric mean, read-out: hGCGR EC50, nM (SEM, n)
T2 construct: expressed in transfected cells
T2 sequence (P47871 26-477): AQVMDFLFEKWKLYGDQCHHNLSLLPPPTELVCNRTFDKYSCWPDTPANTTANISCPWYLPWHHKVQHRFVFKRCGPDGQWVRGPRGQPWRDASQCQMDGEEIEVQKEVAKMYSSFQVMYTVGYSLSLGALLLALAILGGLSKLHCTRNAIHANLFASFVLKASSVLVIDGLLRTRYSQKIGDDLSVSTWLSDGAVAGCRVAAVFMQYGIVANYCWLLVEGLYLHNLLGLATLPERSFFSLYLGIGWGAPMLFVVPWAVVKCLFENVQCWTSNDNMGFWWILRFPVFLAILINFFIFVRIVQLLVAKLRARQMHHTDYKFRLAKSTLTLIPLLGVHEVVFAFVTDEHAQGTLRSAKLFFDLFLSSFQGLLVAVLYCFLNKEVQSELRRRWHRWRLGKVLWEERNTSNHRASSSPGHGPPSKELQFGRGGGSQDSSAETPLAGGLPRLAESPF
Summary of the method: as §1

[1] = 0.1% bovine casein and 1.0% human serum albumin, 37° C.
[2] = HEK293, 0.1% bovine casein and 1.0% human serum albumin, 37° C., percent of maximal response to GIP(1-42)NH2
[3] = HEK293, percent of maximal response to GIP(1-42)NH2, 37° C., 0.1% bovine casein, arithmetic mean
[4] = cAMP, incubated at 37° C., 0.1% bovine casein (no human serum albumin)

| Compound | EC50 (hGLP-1R; cAMP, incubated at 37° C., 0.1% bovine casein (no human serum albumin), geometric mean, read-out: hGLP-1R EC50, nM (SEM, n)) [nM] | EC50 (hGIPR; [1]) [nM] | Emax (hGIPR; [2]) [%] | Emax (hGIPR; [3]) [%] | EC50 (hGIPR; [4]) [nM] | EC50 (hGCGR; [1]) [nM] | EC50 (hGCGR; [4]) [nM] | Emax (hGLP-1R; HEK293, 0.1% bovine casein and 1.0% human serum albumin, percent of maximal response to GLP-1(7-36)NH2) [%] | Emax (hGLP-1R; HEK293, percent of maximal response to GLP-1(7-36)NH2, 0.1% bovine casein, arithmetic mean) [%] |
| --- | --- | --- | --- | --- | --- | --- | --- | --- | --- |
| CC[C@H](C)[C@H](NC(=O)[C@H](CC(C)C)NC(=O)[C@](C)(Cc1ccc(O)cc1)NC(=O)[C@@H](CCC(=O)O)NC(=O)[C@@H](NC(=O)[C@H](Cc1ccccc1)NC(=O)[C@H](CCC(=O)O)NC(=O)C(C)(C)NC(=O)[C@H](CCC(N)=O)NC(=O)[C@H](C)NC(=O)[C@H](CCCCNC(=O)COCCOCCNC(=O)COCCOCCNC(=O)CC[C@H](NC(=O)CCCCCCCCCCCCC(=O)O)C(=O)O)NC(=O)[C@H](CCCN)NC(=O)[C@H](CC(=O)O)NC(=O)[C@H](CC(C)C)NC(=O)[C@](C)(CC(C)C)NC(=O)[C@@H](NC(=O)[C@H](CO)NC(=O)[C@H](Cc1ccc(OC)cc1)NC(=O)[C@H](CC(=O)O)NC(=O)[C@H](CO)NC(=O)[C@@H](NC(=O)[C@](C)(Cc1ccccc1F)NC(=O)[C@@H](NC(=O)CNC(=O)[C@H](CCC(=O)O)NC(=O)C(C)(C)NC(=O)[C@@H](N)Cc1ccc(O)cc1)[C@@H](C)O)[C@@H](C)O)[C@@H](C)CC)[C@@H](C)CC)C(=O)N[C@@H](CCC(=O)O)C(=O)NCC(=O)NCC(=O)N[C@@H](CCCCNC(=O)COCCOCCNC(=O)COCCOCCNC(=O)CC[C@H](NC(=O)CCCCCCCCCCCCC(=O)O)C(=O)O)C(=O)N[C@@H](CO)C(=O)N[C@@H](CO)C(=O)NCC(=O)N[C@@H](C)C(=O)N1CCC[C@H]1C(=O)N1CCC[C@H]1C(=O)N1CCC[C@H]1C(=O)N[C@@H](CO)C(N)=O [Example 58] (H-Y[Aib]EGT[αMePhe(2-F)]TSDY(Me)SI[αMeL]LD[Orn]K([AEEA-AEEA-γGlu-C14 diacid])AQ[Aib]EFI[dE][αMeY]LIEGGK([AEEA-AEEA-γGlu-C14 diacid])SSGAPPPS-NH2) | 0.194 | 1.12 | 92.2 ± 7.4 | 89.2 ± 5.96 | 0.0158 | > 9950 | > 9950 |  |  |
| CC[C@H](C)[C@H](NC(=O)[C@H](CC(C)C)NC(=O)[C@](C)(Cc1ccc(O)cc1)NC(=O)[C@@H](CCC(=O)O)NC(=O)[C@@H](NC(=O)[C@H](Cc1ccccc1)NC(=O)[C@H](CCC(=O)O)NC(=O)C(C)(C)NC(=O)[C@H](CCC(N)=O)NC(=O)[C@H](C)NC(=O)[C@H](CCCCNC(=O)COCCOCCNC(=O)COCCOCCNC(=O)CC[C@H](NC(=O)CCCCCCCCCCCCC(=O)O)C(=O)O)NC(=O)[C@H](CCCN)NC(=O)[C@H](CC(=O)O)NC(=O)[C@H](CC(C)C)NC(=O)[C@](C)(CC(C)C)NC(=O)[C@@H](NC(=O)[C@@H](NC(=O)[C@H](Cc1ccncc1)NC(=O)[C@H](CC(=O)O)NC(=O)[C@H](CO)NC(=O)[C@@H](NC(=O)[C@](C)(Cc1ccccc1F)NC(=O)[C@@H](NC(=O)CNC(=O)[C@H](CCC(=O)O)NC(=O)C(C)(C)NC(=O)[C@@H](N)Cc1ccc(O)cc1)[C@@H](C)O)[C@@H](C)O)C(C)(C)C)[C@@H](C)CC)[C@@H](C)CC)C(=O)N[C@@H](CCC(=O)O)C(=O)NCC(=O)NCC(=O)N[C@@H](CCCCNC(=O)COCCOCCNC(=O)COCCOCCNC(=O)CC[C@H](NC(=O)CCCCCCCCCCCCC(=O)O)C(=O)O)C(=O)N[C@@H](CO)C(=O)N[C@@H](CO)C(=O)NCC(=O)N[C@@H](C)C(=O)N1CCC[C@H]1C(=O)N1CCC[C@H]1C(=O)N1CCC[C@H]1C(=O)N[C@@H](CO)C(N)=O [Example 202] |  |  | 75.3 | 86 |  | > 9950 | > 9950 | 109 | 92.2 |
